Measurements taken from patent US20260027243A1, “AMPHIPHILIC COMPOUNDS FOR ATTENUATING NEUROTOXICITY OF AMYLOID-beta OLIGOMERS AND DIAGNOSTIC METHODS” (THE BOARD OF TRUSTEES OF THE UNIVERSITY OF ILLINOIS, priority 2022, published 2026).
Read-outs that look alike come from different tables or passages of the source.

Assays:
[1] = Log D by octanol-PBS partition; assay type: physicochemical; conditions: DCM compounds
Procedure: Log D measurements. The Log D value was measured following a published procedure using slight modifications. In general, compounds in 0.5 mL octanol was subjected to partition with 0.5 mL octanol-saturated PBS. The whole mixture was stirred vigorously for 5 min, and centrifuged at 2,000 rpm for 5 min. The top octanol layer was separated for later fluorescence measurement. The remaining PBS layer was partitioned with 0.5 mL PBS-saturated octanol, and the second top octanol layer was then separated after vigorous stirring and centrifuging at 2,000 rpm for another 5 min. The two octanol layers' fluorescence spectra were recorded. The log D value was calculated by the fluorescence intensity ratio at the compounds' emission wavelength for the above two octanol extractions.

Aβ42 oligomers = biological target: T1, Aβ42 oligomers (Homo sapiens, UniProt P05067); assay: Fluorescence saturation binding assay with Aβ42 oligomers; conditions: for Kd: read-out: Kd, Oligomers
T1 construct: commercial Aβ42 monomer powder (from GL biochem); purchased GL biochem
Procedure: Aβ42 oligomers: The 0.5 mg monomeric films were dissolved in 1.1 mL PBS buffer (with final DMSO concentration less than 1%) and incubated at 4° C. overnight. The resulting solution was then centrifuged at 3000 rpm for 15 mins to remove the insoluble aggregates. The clear supernatant was then used for the following experiments. Aβ42 oligomers concentration was checked by measuring the absorbance of the supernatant at 280 nm.
(§1) In Vitro Saturation Binding Studies with Aβ42 Fibrils and Aβ42 Oligomers. To a solution of increasing concentrations of compounds, a fixed concentration of the generated aggregated Aβ42 fibrils or Aβ42 oligomers solutions (5 to 15 NM) was added to yield a total volume of 100 μL. Nonspecific binding was determined […]. The mixture was incubated for 15 min at room temperature. All fluorescence data were obtained on a SpectraMax M2e plate reader (Molecular Devices). The fluorescent intensity was measured at the corresponding emission wavelength of each compound, and the Kd binding curves were generated by GraphPad Prism 8.0 with one site-specific binding model. Equation: Y=Bmax*X/(Kd+X).

[2] = biological target: T2, native Aβ species in 5×FAD mice brain sections (Homo sapiens, UniProt P05067); assay: Fluorescence staining of 5×FAD mice brain sections, colocalization; set-up: species or system mouse; conditions: 5×FAD brain sections, compared with ThS
T2 construct: from tissue; host or cells: brain sections of 5×FAD transgenic mice
Procedure: Histological Staining of 5×FAD Mice Brain Sections. 5×FAD transgenic mice brain sections were blocked with bovine serum albumin (2% BSA in PBS, pH 7.4, 10 min). Then the mice brain sections were transferred to a PBS solution of the compound and incubated for 1 h. […] Then, the brain sections were treated with BSA again (5 min) followed by washing with PBS (3×2 min), DI water (3×2 min). Finally, the mice brain sections were mounted with non-fluorescent mounting media, and the images were obtained by using EVOS FL Auto 2. ImageJ Fiji program was used for colocalization analysis and determination of the Pearson's correlation coefficient. The primary antibodies were labeled with dye CF594 via Mix-n-Stain™ CF™ 594 Antibody Labeling Kit (Sigma Aldrich).

Aβ42 fibrils = biological target: T3, Aβ42 fibrils (Homo sapiens, UniProt P05067); assay: Fluorescence saturation binding assay with Aβ42 fibrils; conditions: read-out: Kd, Fibrils
T3 construct: commercial Aβ42 monomer powder (from GL biochem); purchased GL biochem
Procedure: Preparation of the Aβ42 Fibrils and Aβ42 Oligomers. Aβ42 fibrils: 1 mg of commercial Aβ42 monomer powder (from GL biochem) was dissolved in 1 mL 1,1,1,3,3,3-hexafluoro-2-propanol (HFIP) at room temperature and incubated for 1 h. The resulting solution was divided equally into two Eppendorf tubes. The solution in each Eppendorf tube containing 0.5 mg Aβ42 monomer was then evaporated overnight and dried by vacuum centrifuge to generate monomeric films. […] Aβ42 fibrils solution was prepared by dissolving the 0.5 mg monomeric films in 1.1 mL PBS buffer (with final DMSO concentration less than 1%) and stirring at 37° C. for 3 days.
as §1

[3] = tested on: interactions between Aβ oligomers and SH-SY5Y cell membranes; assay: Confocal imaging of Aβ oligomers binding to SH-SY5Y cell membranes; assay type: cell-based, human; conditions: 5 μM Aβ oligomers, 5 μM compound, 24 h
Procedure: (§2) Cell Imaging Procedures. For oligomers and fibrils imaging: Human neuroblastoma SH-SY5Y cells were grown with DMEM/10% FBS at 37° C. in a humidified atmosphere with 5% CO2, and an 8-well μ-slides (ibidi) chambered coverslip was seeded the SH-SY5Y cells. At about 80% confluency (24 h after seeding), the cells were treated with DMSO as control group, 5 μM oligomers/fibrils and 5 μM (oligomers/fibrils+ compounds), respectively. After 24 h incubation, the media was removed from each well. The cells were then fixed with 200 μL 3.7% formaldehyde for 15 min and blocked with 200 μL 3% BSA for 10 min. 3% BSA was then removed from the cells and replaced with 100 μL CF594-HJ 3.4 (1 μg/mL in 3% BSA). The cells were incubated with CF594-HJ 3.4 for 2 h at room temperature and were washed with PBS (5×100 μL). Before imaging, the cells in each well were stained with 100 μL NucBlue reagent (Thermo Fisher Scientific) for 15 min and mounted with non-fluorescent mounting media. 5-10 images of each well were taken, and the images were processed and analyzed by Fiji and Zeiss Zen lite software. Three individual replicates were conducted and subjected to the statistical analysis.

[4] = tested on: interactions between Aβ fibrils and SH-SY5Y cell membranes; assay: Confocal imaging of Aβ fibrils binding to SH-SY5Y cell membranes; assay type: cell-based, human; conditions: 5 μM fibrils, 5 μM compound, 24 h
Procedure: as §2

[5] = tested on: interactions between Cu-Aβ species and SH-SY5Y cell membranes; assay: Confocal imaging of Cu-Aβ species binding to SH-SY5Y cell membranes; assay type: cell-based, human; conditions: 5 μM Aβ monomers + Cu^2+ + compound, 48 h
Procedure: For monomers +Cu^2+ imaging: SH-5Y5Y were seeded as mentioned above, and cells were treated with DMSO as control group, 5 μM monomers, 5 μM (monomers +CuCl2) and 5 μM (monomers +CuCl2+compounds) respectively. After 48 h incubation, cells were treated and imaged the same way as mentioned above.

[6] = tested on: Cu^2+-Aβ42-induced toxicity in Neuro2A cells; assay: Cu2+-Aβ42-induced toxicity, Alamar blue cell viability; assay type: cell-based, mouse; conditions: [Aβ42]=40 μM, [Cu^2+]=40 μM, compound 10 μM (ZY-12-OMe 5 μM)
Procedure: FIG. 6. Cell viability results upon incubation of Neuro2A cells with monomeric Aβ42 in the presence or absence of metal ions and amphiphilic compounds. Concentrations: [Aβ42]=40 μM, [Cu^2+]=40 μM, [ZY-12-MT]=[ZY-15-OMe]=[ZY-15-MT]=[ZY-17-MT]=[ZY-5-OMe]=[ZY-5-MT]=[ZY-5-DT]=10 μM, [ZY-12-OMe]=5 μM. The error bars represent the standard deviation from five independent experiments, and the statistical analysis was evaluated according to one-way ANOVA (*p<0.05).
For the Cu^2+-Ap-induced toxicity studies, cells treated were monomeric Aβ42, Cu^2+, monomeric Aβ42+Cu^2+, and monomeric Aβ42+Cu^2++ compounds, respectively. After 40 h incubation, Alamar Blue solution (10 μL) was added, and the cells were incubated for another 90 min at 37° C. The fluorescence intensity of each well was measured at 590 nm (excitation wavelength=560 nm).

[7] = tested on: native Aβ aggregates in AD mice brain; assay: BBB permeability: in vivo accumulation after intraperitoneal treatment, brain section colocalization; set-up: species or system mouse; conditions: 12-month-old AD mice, 0.1 mg/Kg, 10 days
Procedure: FIG. 13. In vivo accumulation of DCM-OH-2-DT. Fluorescence microscopy images of brain sections from 12-month-old 5×FAD mice administered with DCM-OH-2-DT for 10 days. The brain sections were stained with Thioflavin S (ThS); [ThS]=5 μM, scale bar=125 μm.
Fluorescence Imaging of 5×FAD Mouse Brain Sections and blood-brain barrier (BBB) permeability. To confirm the developed compounds can also bind to native Aβ aggregates, we performed fluorescence imaging studies and colocalization experiments on 5×FAD mouse brain sections. […] This further supports that the compounds are selective and can bind to native soluble Aβ oligomers. Before investigating the blood-brain barrier (BBB) permeability of the developed compounds, their neurotoxicity was measured first (FIG. 12). […] DCM-OH-2 leads to less than 80% cell viability even at 2 μM, which is probably due to its poor solubility. Nevertheless, the DCM-OH-2-DT was chosen as the candidate to test the blood-brain barrier (BBB) permeability. 12-month-old AD mice were treated with compound DCM-OH-2-DT (0.1 mg/Kg) for 10 days via intraperitoneal injection. At the end of treatment, mice brains were harvested and colocalization experiments were performed on the mice brain sections.

[8] = tested on: brain region of 5×FAD mice vs. WT mice; assay: Real-time in vivo NIR fluorescence imaging; set-up: species or system mouse; conditions: 5 mg/kg
Procedure: DCM-OH-2-DT was chosen as the best candidate for real-time in vivo fluorescence imaging studies. Seven-month-old AD mice and age-matched wild type (WT) mice were injected with the compound at 5 mg/kg. The NIR fluorescence intensities from the brain region were collected and analyzed over time. […] These imaging results further support the potential in vivo application of the developed compounds.
In vivo Imaging Studies. The real-time in vivo fluorescence imaging studies were performed with IVIS imaging system. 7-month-old 5×FAD mice (n=3) and age-matched control B6SJLF1/J mice (n=3) were shaved at the brain region before background imaging. All mice were injected with DCM-OH-2-DT (5 mg/kg, 15% DMSO, 85% PBS) via jugular vein injection. The mice were kept on the imaging stage under anesthesia with 2.5% isoflurane gas in an oxygen flow (1.5 L/min) before the imaging and were woken up after the imaging. Fluorescence signals from the brain were recorded at 5-, 15-, 30-, 60-min after the injection of DCM-OH-2-DT with a filter set (excitation at 470 nm and emission at 740 nm). Imaging data was analyzed by Living Image software, and an ROI was drawn around the brain region. The data were analyzed by subtracting the background fluorescence intensity of each mouse. P values were calculated by Student's t test.

[9] = biological target: T4, Aβ42 fibrils and oligomers (Homo sapiens, UniProt P05067); assay: Fluorescence turn-on with Aβ42 fibrils and oligomers; assay type: binding
T4 construct: commercial Aβ42 monomer powder (from GL biochem); purchased GL biochem
Procedure: Fluorescence Spectral Testing of Compounds with Aps2 Fibrils and Aβ42 Oligomers. The formation of Aβ42 fibrils and oligomers was confirmed by the ThT fluorescence turn-on assay. The fluorescence spectra of ThT in PBS (100 μL PBS, 10.0 μM) were recorded as the baseline. After that, either Aβ42 fibrils or oligomers were added to ThT in PBS. The final volume of the solution mixture should be 100 μL, in which the final concentrations of ThT and Aβ42 species were10. μM and 25 μM, respectively.
For the interactions between Aps and compounds, the fluorescence spectra of the compounds' solution (100 μL PBS, 5.0 μM) were recorded as the baseline without adding various Aβ42 species.
After that, either Aβ42 fibrils or oligomers were added to the compounds' solutions in PBS. The final volume of the solution mixture should be 100 μL, in which the final concentrations of the compound and Aβ42 species were 5. μM and 25 μM, respectively.

T1 sequence (P05067 672-713 limits assumed): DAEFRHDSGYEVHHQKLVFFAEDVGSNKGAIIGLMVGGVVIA
T3 sequence (P05067 672-713 limits assumed): as above
T2 sequence (P05067 672-713 limits assumed): as above
T4 sequence (P05067 672-713 limits assumed): as above

logD [1]	Kd (Aβ42 oligomers; Table 3, DCM compounds) [nM]	Kd (Aβ42 fibrils; Table 3, DCM compounds) [nM]	Kd (Aβ42 oligomers; Table 1, amphiphilic compounds) [nM]	Kd (Aβ42 fibrils; Table 1, amphiphilic compounds) [nM]	time to maximum brain NIR fluorescence signal after injection ([8]; jugular vein injection)	maximum emission wavelength when binding to Aβ aggregates [9] [nm]	Structure (SMILES)	binding affinity towards Aβ42 oligomers over fibrils (Aβ42 oligomers; DCM compounds)	region of Aβ aggregates bound [2]	Aβ oligomers bound to cell membranes [3]	Aβ fibrils binding to cell membranes [4]	binding affinity to oligomers compared with fibrils (Kd comparison) (Aβ42 oligomers; amphiphilic ZY compounds)	Cu-Aβ species interactions with cell membranes [5]	effect on cell viability under Cu^2+-Aβ42 toxicity [6]	colocalization with ThS after in vivo administration [7]	brain fluorescence signal, AD mice vs WT mice ([8]; 7-month-old mice, 5-, 15-, and 30-min post injection)
1.13 ± 0.16	230 ± 30	780 ± 110					CN1CCN(C)CCN(Cc2cc(/C=C/C=C/C3=CC(=C(C#N)C#N)c4ccccc4O3)ccc2O)CC1 [DCM-OH-2-MT, 2-(2-((1E,3E)-4-(3-((4,7-dimethyl-1,4,7-triazonan-1-yl)methyl)-4-hydroxyphenyl)buta-1,3-dien-1-yl)-4H-chromen-4-ylidene)malononitrile]	three times higher binding affinity towards Aβ42 oligomers over fibrils	bind to the peripheral region of the Aβ aggregates							
			470 ± 130	1240 ± 180			COc1cc(/C=C/c2ccc(-c3ccc(C=O)cc3)s2)cc(CN2CCN(C)CCN(C)CC2)c1O [ZY-15-OMe, (E)-4-(5-(3-((4,7-dimethyl-1,4,7-triazonan-1-yl)methyl)-4-hydroxy-5-methoxystyryl)thiophen-2-yl)benzaldehyde]			fewer numbers of Aβ oligomers bound to the cell membranes	not able to significantly decrease the numbers of the Aβ fibrils binding to cell membranes	higher binding affinity to oligomers over fibrils	significantly decreased interactions with cell membranes	significantly increase cell viability		
			2030 ± 110	530 ± 30			CN1CCN(C)CCN(Cc2cc(/C=C/c3ccc(-c4ccc(C=O)cc4)s3)ccc2O)CC1 [ZY-15-MT, (E)-4-(5-(3-((4,7-dimethyl-1,4,7-triazonan-1-yl)methyl)-4-hydroxystyryl)thiophen-2-yl)benzaldehyde]			fewer numbers of Aβ oligomers bound to the cell membranes	not able to significantly decrease the numbers of the Aβ fibrils binding to cell membranes		significantly decreased interactions with cell membranes	significantly increase cell viability		
1.2 ± 0.07	430 ± 60	500 ± 110			about 15 min	730	CN1CCN(C)CCN(Cc2cc(/C=C/C=C/C3=CC(=C(C#N)C#N)c4ccccc4O3)cc(CN3CCN(C)CCN(C)CC3)c2O)CC1 [DCM-OH-2-DT, 2-(2-((1E,3E)-4-(3,5-bis((4,7-dimethyl-1,4,7-triazonan-1-yl)methyl)-4-hydroxyphenyl)buta-1,3-dien-1-yl)-4H-chromen-4-ylidene)malononitrile]		bind to the peripheral region of the Aβ aggregates						good colocalization with ThS	significantly higher fluorescence signal in AD mice
